The values below come from the supplement of paper PMC10307832.

Common to all, as to experiment: relative viability (nuclei count vs DMSO), 5 days (fraction); higher = more cells survive
Compound in the test “Dasatinib + Linsitinib”: Cc1nc(Nc2ncc(C(=O)Nc3c(C)cccc3Cl)s2)cc(N2CCN(CCO)CC2)n1 [Dasatinib] + C[C@]1(O)C[C@@H](c2nc(-c3ccc4ccc(-c5ccccc5)nc4c3)c3c(N)nccn32)C1 [Linsitinib] (partner 1 µM)
The essentials: (§1)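 Nuclei were stained with Hoechst during a one-step fixation (final 0.05% Triton X-100, 1% formaldehyde, 1 ug/ml Hoechst) carried out 5 days after dosing, then counted on 4× images. The cells, lung cancer lines in 1536-well plates, had been dosed by pin tool the day after seeding with one drug alone or a fixed anchor-drug dose plus five library-drug doses (not always all listed) in √10 steps. Relative viability is the nuclei count in treated wells divided by that in vehicle wells, and each value is the median of duplicate plates.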

Compound in the test “XMD13-2 + Vorinostat”: C1CC1C(=O)NC2=NNC3=C2C=CC(=C3)C4=CC(=CC=C4)C(=O)NC5CC5 [XMD13-2] + O=C(CCCCCCC(=O)Nc1ccccc1)NO [Vorinostat] (partner 1 µM)
The essentials:
as §1

Compound in the test “XMD13-2 + Lapatinib”: C1CC1C(=O)NC2=NNC3=C2C=CC(=C3)C4=CC(=CC=C4)C(=O)NC5CC5 [XMD13-2] + CS(=O)(=O)CCNCc1ccc(-c2ccc3ncnc(Nc4ccc(OCc5cccc(F)c5)c(Cl)c4)c3c2)o1 [Lapatinib] (partner 2 µM)
The essentials: as §1

Compound in the test “ALW-II-49-7 + Vorinostat”: Cc1ccc(C(=O)Nc2cccc(C(F)(F)F)c2)cc1Nc1cncc(C(N)=O)c1 [ALW-II-49-7] + O=C(CCCCCCC(=O)Nc1ccccc1)NO [Vorinostat] (partner 1 µM)
In short, it runs like this: as §1

For PC-3 [JPC-3], the relative viability is 0.976 with Dasatinib + Linsitinib (first compound 0.005 µM); 0.97 with Dasatinib + Linsitinib (first compound 0.01581 µM); 1.07 in the test with Dasatinib + Linsitinib (first compound 0.05 µM); 1.06 with Dasatinib + Linsitinib (first compound 0.1581 µM); 0.633 with Dasatinib + Linsitinib (first compound 0.5 µM); 0.804 in the test with XMD13-2 + Vorinostat (first compound 0.05 µM). For the same cell line, the relative viability was 0.857 in the test with XMD13-2 + Vorinostat (first compound 0.1581 µM); 0.916 with XMD13-2 + Vorinostat (first compound 0.5 µM); 0.734 with XMD13-2 + Vorinostat (first compound 5 µM); 0.453 in the test with XMD13-2 + Lapatinib (first compound 0.05 µM); 0.467 with XMD13-2 + Lapatinib (first compound 0.1581 µM); 0.437 with XMD13-2 + Lapatinib (first compound 0.5 µM). In addition, the relative viability with XMD13-2 + Lapatinib (first compound 1.581 µM) worked out at 0.498; with XMD13-2 + Lapatinib (first compound 5 µM), 0.426; with ALW-II-49-7 + Vorinostat (first compound 0.08 µM), 0.833; with ALW-II-49-7 + Vorinostat (first compound 0.253 µM), 0.822; with ALW-II-49-7 + Vorinostat (first compound 0.8 µM) it was 0.678; with ALW-II-49-7 + Vorinostat (first compound 2.53 µM), 0.846. Further, the relative viability with ALW-II-49-7 + Vorinostat (first compound 8 µM) was determined as 0.742.

With NCI-H1993, the relative viability came to 0.61 with Dasatinib + Linsitinib (first compound 0.005 µM); 0.756 in the test with Dasatinib + Linsitinib (first compound 0.01581 µM); 0.675 with Dasatinib + Linsitinib (first compound 0.05 µM); 0.629 with Dasatinib + Linsitinib (first compound 0.1581 µM); 0.597 with Dasatinib + Linsitinib (first compound 0.5 µM); 1.2 with XMD13-2 + Vorinostat (first compound 0.05 µM). In addition, the relative viability with XMD13-2 + Vorinostat (first compound 0.1581 µM) came out at 0.814; with XMD13-2 + Vorinostat (first compound 0.5 µM), 0.769; with XMD13-2 + Vorinostat (first compound 1.581 µM), 0.613; with XMD13-2 + Vorinostat (first compound 5 µM), 0.907; with XMD13-2 + Lapatinib (first compound 0.05 µM) it was 0.904; with XMD13-2 + Lapatinib (first compound 0.1581 µM), 0.87. Also, the relative viability with XMD13-2 + Lapatinib (first compound 0.5 µM) is 0.931; with XMD13-2 + Lapatinib (first compound 1.581 µM) it was 0.765; with XMD13-2 + Lapatinib (first compound 5 µM) it was 0.706; in the test with ALW-II-49-7 + Vorinostat (first compound 0.08 µM), 0.843; with ALW-II-49-7 + Vorinostat (first compound 0.253 µM) it was 0.72; with ALW-II-49-7 + Vorinostat (first compound 0.8 µM), 0.837. In addition, the relative viability in the test with ALW-II-49-7 + Vorinostat (first compound 2.53 µM) stood at 0.828; with ALW-II-49-7 + Vorinostat (first compound 8 µM), 0.796.

Regarding LOU-NH91, the relative viability was 0.961 with Dasatinib + Linsitinib (first compound 0.005 µM); 0.847 in the test with Dasatinib + Linsitinib (first compound 0.01581 µM); 0.715 in the test with Dasatinib + Linsitinib (first compound 0.05 µM); 0.549 in the test with Dasatinib + Linsitinib (first compound 0.1581 µM); 0.412 in the test with Dasatinib + Linsitinib (first compound 0.5 µM); 1.05 with XMD13-2 + Vorinostat (first compound 0.05 µM). In addition, the relative viability in the test with XMD13-2 + Vorinostat (first compound 0.1581 µM) is 0.971; with XMD13-2 + Vorinostat (first compound 0.5 µM), 0.935; with XMD13-2 + Vorinostat (first compound 1.581 µM), 0.852; with XMD13-2 + Vorinostat (first compound 5 µM) it was 1.02; with XMD13-2 + Lapatinib (first compound 0.05 µM), 0.809; with XMD13-2 + Lapatinib (first compound 0.1581 µM), 0.758. Moreover, the relative viability is 0.725 with XMD13-2 + Lapatinib (first compound 0.5 µM); 0.713 in the test with XMD13-2 + Lapatinib (first compound 1.581 µM); 0.746 in the test with XMD13-2 + Lapatinib (first compound 5 µM); 0.884 with ALW-II-49-7 + Vorinostat (first compound 0.08 µM); 0.888 in the test with ALW-II-49-7 + Vorinostat (first compound 0.253 µM); 1 with ALW-II-49-7 + Vorinostat (first compound 0.8 µM). Moreover, the relative viability in the test with ALW-II-49-7 + Vorinostat (first compound 8 µM) stood at 0.805.

As to SW 900, the relative viability with XMD13-2 + Vorinostat (first compound 0.05 µM) was 0.721; with XMD13-2 + Vorinostat (first compound 0.1581 µM) it was 0.42; with XMD13-2 + Vorinostat (first compound 0.5 µM), 0.501; with XMD13-2 + Vorinostat (first compound 1.581 µM), 0.45; with XMD13-2 + Vorinostat (first compound 5 µM), 0.623; with ALW-II-49-7 + Vorinostat (first compound 0.08 µM) it was 0.539. For the same cell line, the relative viability with ALW-II-49-7 + Vorinostat (first compound 0.253 µM) is 0.554; with ALW-II-49-7 + Vorinostat (first compound 2.53 µM), 0.517; with ALW-II-49-7 + Vorinostat (first compound 8 µM) it was 0.289.

Consider LCLC-103H, for which the relative viability in the test with Dasatinib + Linsitinib (first compound 0.005 µM) was 1.07; in the test with Dasatinib + Linsitinib (first compound 0.01581 µM), 0.961; with Dasatinib + Linsitinib (first compound 0.05 µM), 0.88; in the test with Dasatinib + Linsitinib (first compound 0.1581 µM), 0.568; with Dasatinib + Linsitinib (first compound 0.5 µM) it was 0.388; in the test with XMD13-2 + Vorinostat (first compound 0.05 µM) it was 0.891. Further, the relative viability with XMD13-2 + Vorinostat (first compound 0.1581 µM) is 0.83; in the test with XMD13-2 + Vorinostat (first compound 0.5 µM), 0.817; with XMD13-2 + Vorinostat (first compound 1.581 µM) it was 0.696; in the test with XMD13-2 + Vorinostat (first compound 5 µM) it was 0.751; with ALW-II-49-7 + Vorinostat (first compound 0.08 µM), 0.79; with ALW-II-49-7 + Vorinostat (first compound 0.253 µM), 0.763. Besides, the results for the relative viability with ALW-II-49-7 + Vorinostat (first compound 0.8 µM), in the test with ALW-II-49-7 + Vorinostat (first compound 2.53 µM) and with ALW-II-49-7 + Vorinostat (first compound 8 µM) were 0.658, 0.71 and 0.618, respectively.

For the cell line NCI-H1915, the relative viability with Dasatinib + Linsitinib (first compound 0.005 µM) was 1.11; with Dasatinib + Linsitinib (first compound 0.01581 µM), 1.03; with Dasatinib + Linsitinib (first compound 0.05 µM) it was 0.921; with Dasatinib + Linsitinib (first compound 0.1581 µM), 0.488; in the test with Dasatinib + Linsitinib (first compound 0.5 µM) it was 0.288; with XMD13-2 + Vorinostat (first compound 0.05 µM), 0.582. Besides, the relative viability with XMD13-2 + Vorinostat (first compound 0.1581 µM) turned out to be 0.486; with XMD13-2 + Vorinostat (first compound 0.5 µM), 0.5; with XMD13-2 + Vorinostat (first compound 1.581 µM), 0.486; with XMD13-2 + Vorinostat (first compound 5 µM) it was 0.474; with XMD13-2 + Lapatinib (first compound 0.05 µM), 1.07; with XMD13-2 + Lapatinib (first compound 0.1581 µM), 1.01. The relative viability with XMD13-2 + Lapatinib (first compound 0.5 µM) is 1; with XMD13-2 + Lapatinib (first compound 1.581 µM) it was 1; with XMD13-2 + Lapatinib (first compound 5 µM) it was 0.94; in the test with ALW-II-49-7 + Vorinostat (first compound 0.08 µM) it was 0.585; with ALW-II-49-7 + Vorinostat (first compound 0.253 µM), 0.483; with ALW-II-49-7 + Vorinostat (first compound 0.8 µM), 0.498. In addition, the relative viability with ALW-II-49-7 + Vorinostat (first compound 2.53 µM) turned out to be 0.348; with ALW-II-49-7 + Vorinostat (first compound 8 µM) it was 0.256.

Consider IA-LM, for which the relative viability came out at 0.787 with Dasatinib + Linsitinib (first compound 0.005 µM); 0.732 with Dasatinib + Linsitinib (first compound 0.01581 µM); 0.65 with Dasatinib + Linsitinib (first compound 0.05 µM); 0.712 in the test with Dasatinib + Linsitinib (first compound 0.1581 µM); 0.475 with Dasatinib + Linsitinib (first compound 0.5 µM); 0.954 with XMD13-2 + Vorinostat (first compound 0.05 µM). Besides, the relative viability with XMD13-2 + Vorinostat (first compound 0.1581 µM) is 1.05; in the test with XMD13-2 + Vorinostat (first compound 0.5 µM), 0.96; with XMD13-2 + Vorinostat (first compound 5 µM), 0.718; with XMD13-2 + Lapatinib (first compound 0.05 µM) it was 0.812; with XMD13-2 + Lapatinib (first compound 0.1581 µM) it was 0.869; with XMD13-2 + Lapatinib (first compound 0.5 µM), 0.751. Also, the relative viability with XMD13-2 + Lapatinib (first compound 1.581 µM) was found to be 0.682; in the test with XMD13-2 + Lapatinib (first compound 5 µM), 0.47; with ALW-II-49-7 + Vorinostat (first compound 0.08 µM) it was 0.998; with ALW-II-49-7 + Vorinostat (first compound 0.253 µM), 0.613; in the test with ALW-II-49-7 + Vorinostat (first compound 0.8 µM), 0.745; in the test with ALW-II-49-7 + Vorinostat (first compound 2.53 µM), 0.29. The relative viability with ALW-II-49-7 + Vorinostat (first compound 8 µM) is 0.423.
